Experimental data reported in patent publication US20260223854A1, “AN HERBICIDAL COMBINATION, COMPOSITION AND METHOD OF CONTROLLING WEEDS USING THE SAME” (priority 2023, published 2026).

How the values were obtained:
Type in all cases: in vivo
Brachiaria decumbens = assay: Greenhouse post-emergence herbicidal activity on Brachiaria decumbens; conditions: 3 DAA, L-glufosinate ammonium 150 g a.i./ha
Method: (§1) The expected efficacy of a combination of L-glufosinate ammonium and the other herbicides was calculated using the well-established Colby method. Any difference between the observed and “expected” efficacy could be attributed to synergy between the two compounds.
(§2) In the Colby method, the expected (or predicted) response of a combination of herbicides is calculated by taking the product of the observed response for each individual component of the combination when applied alone, divided by 100, and subtracting this value from the sum of the observed response for each component when applied alone. An unexpected enhancement in efficacy of the combination is then determined by comparing the observed response of the combination to the expected (or predicted) response as calculated from the observed response of each individual component alone. If the observed response of the combination is greater than the expected (or predicted) response, or stated conversely, if the difference between the observed and expected response is greater than zero, then the combination is said to be synergistic or unexpectedly effective (Colby, S. R., Weeds, 1967 (15), p. 20-22). The Colby method requires only a single dose of each herbicide applied alone and the mixture of both doses. The formula used to calculate the expected efficacy (EE) which was compared with the observed efficacy (OE) to determine the efficacy of the present disclosure is explained hereinbelow:
(§3) Methodology: Greenhouse trials were conducted to evaluate the efficacy of the combination of L-glufosinate ammonium and triketone herbicides—mesotrione and tembotrione—on weeds Amaranthus viridis, Borreria verticillata, Brachiaria decumbens and Eleusine indica.
(§4) The soil used was sandy clay loam—sand: 68.0%; silt: 8.0%; clay: 24.0%.
(§5) All treatments were in 4 replications per treatment with a spray volume of 150 L/ha.
The percentage efficacy was calculated at 14 days after application (DAA). The target weed was Brachiaria decumbens, and the concentration of the herbicide and the results are recorded in Table 1.
The percentage efficacy was calculated at 3 days of application (DAA). The target weed was Brachiaria decumbens and the concentration of the herbicide and the results are recorded in Table 7.

Borreria verticillata = assay: Greenhouse post-emergence herbicidal activity on Borreria verticillata; conditions: L-glufosinate ammonium 150 g a.i./ha
Method: as §1, §2, §3, §4, §5
The percentage efficacy was calculated at 28 and 35 days after application (DAA). The target weed was Borreria verticillata, and the concentration of the herbicide and the results are recorded in Table 2.
The percentage efficacy was calculated at 3 and 7 days of application (DAA). The target weed was Borreria verticillata, and the concentration of the herbicide and the results are recorded in Table 6.

Eleusine indica = assay: Greenhouse post-emergence herbicidal activity on Eleusine indica; conditions: L-glufosinate ammonium 150 g a.i./ha
Method: as §1, §2, §3, §4, §5
The percentage efficacy was calculated at 14 days after application (DAA). The target weed was Eleusine indica, and the concentration of the herbicide and the results are recorded in Table 3.
The percentage efficacy was calculated at 3, 7, 21, 28, 35 days of application (DAA). The target weed was Eleusine indica, and the concentration of the herbicide and the results are recorded in Table 8.

Amaranthus viridis = assay: Greenhouse post-emergence herbicidal activity on Amaranthus viridis; conditions: L-glufosinate ammonium 150 g a.i./ha
Method: as §1, §2, §3, §4, §5
The percentage efficacy was calculated at 3 and 7 days after application (DAA). The target weed was Amaranthus viridis, and the concentration of the herbicide and the results are recorded in Table 4.
The percentage efficacy was calculated at 3 and 7 days of application (DAA). The target weed was Amaranthus viridis, and the concentration of the herbicide and the results are recorded Table 5.

[1] = mesotrione 100 g a.i./ha, Table 1
[2] = tembotrione 53 g a.i./ha, Table 7
[3] = 3 DAA, tembotrione 53 g a.i./ha, Table 6
[4] = 7 DAA, tembotrione 53 g a.i./ha, Table 6
[5] = 28 DAA, mesotrione 100 g a.i./ha, Table 2
[6] = 35 DAA, mesotrione 100 g a.i./ha, Table 2
[7] = 3 DAA, tembotrione 53 g a.i./ha, Table 8
[8] = 7 DAA, tembotrione 53 g a.i./ha, Table 8
[9] = 14 DAA, mesotrione 100 g a.i./ha, Table 3
[10] = 21 DAA, tembotrione 53 g a.i./ha, Table 8
[11] = 28 DAA, tembotrione 53 g a.i./ha, Table 8
[12] = 35 DAA, tembotrione 53 g a.i./ha, Table 8
[13] = 3 DAA, mesotrione 100 g a.i./ha, Table 4
[14] = 3 DAA, tembotrione 53 g a.i./ha, Table 5
[15] = 7 DAA, mesotrione 100 g a.i./ha, Table 4
[16] = 7 DAA, tembotrione 53 g a.i./ha, Table 5

Row | SMILES | % Control (Brachiaria decumbens; [1]) | % Control (Brachiaria decumbens; [2]) | % Control (Borreria verticillata; [3]) | % Control (Borreria verticillata; [4]) | % Control (Borreria verticillata; [5]) | % Control (Borreria verticillata; [6]) | % Control (Eleusine indica; [7]) | % Control (Eleusine indica; [8]) | % Control (Eleusine indica; [9]) | % Control (Eleusine indica; [10]) | % Control (Eleusine indica; [11]) | % Control (Eleusine indica; [12]) | % Control (Amaranthus viridis; [13]) | % Control (Amaranthus viridis; [14]) | % Control (Amaranthus viridis; [15]) | % Control (Amaranthus viridis; [16])
1 | CP(=O)(O)CC[C@H](N)C(=O)O.N [L-glufosinate ammonium, ammonium (2S)-2-amino-4-(methylphosphinato) butyric acid] | 40% | 40% | 55% | 80% | 90% | 85% | 40% | 50% | 30% | 50% | 30% | 40% | 40% | 50% | 80% | 80%
2 | CS(=O)(=O)c1ccc(C(=O)C2C(=O)CCCC2=O)c([N+](=O)[O-])c1 [Mesotrione, mesotrione] | 10% | – | – | – | 75% | 75% | – | – | 20% | – | – | – | 10% | – | 30% | –
3 | CS(=O)(=O)c1ccc(C(=O)C2C(=O)CCCC2=O)c(Cl)c1COCC(F)(F)F [Tembotrione, tembotrione] | – | 8% | 10% | 30% | – | – | 5% | 15% | – | 28% | 35% | 20% | – | 10% | – | 30%
